Experiments:
[1] = test system: HeLa cells overexpressing BI-1; assay: Effect of a SERCA agonist on [Ca2+]ER (ER cameleon); type: cell-based; details: 24 hrs treatment, ER cameleon YFP/CFP
Protocol: To directly measure ER Ca^2+ content, a genetically encoded Ca^2+ indicator, ER cameleon, was used. HeLa cells were transfected with ER-cameleon encoding plasmid for 2 days before analysis. Cells were treated with a test compound for 24 hrs and imaged in Ca^2+-free HBSS upon addition of thapsigargin to deplete ER stores. Emission ratio imaging of the ER cameleon was accomplished using a 430/24 excitation filter, 450-nm dichroic mirror, and two emission filters (475/40 for CFP and 535/25 for YFP). The fluorescence ratio of YFP/CFP is a measure of relative ER Ca^2+ levels.

[2] = test system: liver of ob/ob mice; assay: Liver expression of gluconeogenesis and lipogenesis genes in ob/ob mice; type: in vivo, mouse
Protocol: The expression of key genes involved in gluconeogenesis and lipogenesis was measured. RNA was isolated from liver samples of the ob/ob mice and mRNA expression of the indicated genes was quantified by Real-time PCR using iTaq Fast SYBR Green Supermix with ROX (Bio-Rad) in a 7500 Real-Time PCR systems (Applied Biosystems) using mouse specific primers. Gene expression is normalized to 18s. RNA was isolated using Trizol (Invitrogen). cDNA was generated using High Capacity cDNA Reverse Transcription kit (Applied Biosystems). Real-time PCR was performed with iTaq Fast SYBR Green Supermix with ROX (Bio-Rad) in 7500 Real-Time PCR systems (Applied Biosystems) using mouse specific primers. Gene expression was normalized to 18s. Isolated liver tissue was homogenized in RIPA buffer containing protease inhibitors and phosphatase inhibitors (Roche). Protein samples were matched for their protein concentrations and 30 micrograms of each sample were applied to SDS-PASE and transferred onto nitrocellulose membrane. Membranes were then incubated with the corresponding phosphor or total primary antibodies specific for the desired proteins followed by incubation with appropriate secondary antibodies conjugated to horseradish peroxidase (Pierce) and signal intensities were visualized by Chemiluminescence (Pierce). Films from at least four independent experiments were scanned and densities of the immunoreactive bands were evaluated using NIH Image software. GAPDH (Santa Cruz Biotechnology) was used as a loading control.

[3] = test system: SERCA (SR vesicles); assay: Activation of SERCA, increase in Vmax; type: biochemical
[4] = target: human adenosine A2A (Homo sapiens (Human), UniProt P29274); assay: Selectivity panel of 164 targets; details: 10 μM in duplicate; one of only 4 hits among 164 targets
Source text: (§1) The methods used here for each target were adapted from the scientific literature to maximize reliability and reproducibility.

[5] = target: human nerepinephrine (NET) transporter (Homo sapiens (Human), UniProt P23975); assay: Selectivity panel of 164 targets; details: 10 μM in duplicate; one of only 4 hits among 164 targets
Source text: as §1

[6] = test system: rabbit monoamine transporter; assay: Selectivity panel of 164 targets; details: 10 μM in duplicate; one of only 4 hits among 164 targets
Source text: as §1

[7] = target: human serotonin (5-hydroxytryptamine) 5-HT2B (Homo sapiens (Human), UniProt P41595); assay: Selectivity panel of 164 targets; details: 10 μM in duplicate; one of only 4 hits among 164 targets
Source text: The methods used here for each target were adapted from the scientific literature to maximize reliability and reproducibility. Reference standards were run as an integral part of each essay to ensure the validity of the results obtained.

[8] = test system: APPSWE/PSEN1dE9 double-transgenic mice; assay: Alzheimer's model behavioral test, Morris water maze; type: in vivo, mouse; details: 10 mg/kg IP daily for 4 weeks; vs vehicle
Protocol: Briefly, the mice were shown a visible platform that was subsequently removed. The distance that the mice swim searching for the platform was measured, with a shorter distance indicating increased memory. […] Motor coordination, strength, and balance was assessed using the Rotarod test (FIG. 6, B). Mice were first trained until they could remain on a rotarod revolving at 16 rpm for three consecutive 120 sec trials. The next day the mice were placed back on the rotarod for a single trial at 18 rpm (maximum duration 120 sec). The duration a mouse could remain on the rotarod was recorded, and the mouse was then returned to its home cage. The speed of the rotarod was then increased to 21 rpm, and all mice were given another test trial. This process was repeated for rotarod speeds of 24, 27, 30, 33, and 36 rpm. All the speeds were repeated twice for the mice in different groups, interval 30 min every time. The Mean values of two tests were analyzed. The mice maintained longer time on the rotarod with more ability of motor coordination, strength and balance.

[9] = Pharmacokinetics in Sprague Dawley rats; type: in vivo, rat; details: Sprague Dawley rats
Protocol: Blood was drawn at 5 min, 15 min, 30 min, 1 hr, 2 hrs, 4 hrs, 6 hrs, and 8 hrs into EDTA containing tubes and plasma was harvested by centrifugation. Plasma (25 μL) was treated with acetonitrile (125 μL) containing an internal standard. The sample was then centrifuged for 5 min at 4,000 rpm in a tabletop centrifuge and the filtrate was collected. The filtrate was injected onto a Thermo Betasil C18 HPLC column 5 (50×2.1 mm). Mobile Phase A was water with 0.1% formic acid. Mobile Phase B was acetonitrile with 0.1% formic acid. […] An API Sciex 4000 equipped with a turbo ion spray source was used for all analytical measurements. A positive ion MRM method was developed. Peak areas of the product ion were measured against the peak areas of the internal standard. Data was fit using WinNonLin (Pharsight Corporation, Mountain View, CA).

[10] = Pharmacokinetics in CD-1 mice; type: in vivo, mouse; details: for F / AUC / Cmax / half-life: CD-1 mice; for F: 10 mg/kg P.O. vs 2 mg/kg i.v.; for AUC / Cmax / half-life: mouse, plasma, 2 mg/kg i.v. or 10 mg/kg P.O.
Method in brief: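 CD-1 mice (triplicate) dosed 2 mg/kg i.v. or 10 mg/kg oral gavage, formulated 1 mg/mL in DMSO/Tween 80/water (10/10/80). EDTA plasma sampled 0.25–24 h, acetonitrile-precipitated and quantified by positive-ion MRM LC/MS/MS against internal standard; PK parameters fitted from concentration–time data.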

Chain of human adenosine A2A (P29274 whole entry): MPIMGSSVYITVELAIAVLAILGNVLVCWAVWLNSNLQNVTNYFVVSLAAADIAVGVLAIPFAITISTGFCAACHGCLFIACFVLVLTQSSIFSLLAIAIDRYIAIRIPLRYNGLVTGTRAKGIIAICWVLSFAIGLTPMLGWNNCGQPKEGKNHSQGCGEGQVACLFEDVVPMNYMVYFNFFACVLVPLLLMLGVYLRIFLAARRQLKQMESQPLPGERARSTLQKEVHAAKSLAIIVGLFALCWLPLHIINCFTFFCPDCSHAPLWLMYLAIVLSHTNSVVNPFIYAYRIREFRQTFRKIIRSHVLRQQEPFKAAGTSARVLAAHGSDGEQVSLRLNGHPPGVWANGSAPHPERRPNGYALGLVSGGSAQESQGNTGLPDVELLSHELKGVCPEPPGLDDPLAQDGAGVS
Chain of human serotonin (5-hydroxytryptamine) 5-HT2B (P41595 whole entry): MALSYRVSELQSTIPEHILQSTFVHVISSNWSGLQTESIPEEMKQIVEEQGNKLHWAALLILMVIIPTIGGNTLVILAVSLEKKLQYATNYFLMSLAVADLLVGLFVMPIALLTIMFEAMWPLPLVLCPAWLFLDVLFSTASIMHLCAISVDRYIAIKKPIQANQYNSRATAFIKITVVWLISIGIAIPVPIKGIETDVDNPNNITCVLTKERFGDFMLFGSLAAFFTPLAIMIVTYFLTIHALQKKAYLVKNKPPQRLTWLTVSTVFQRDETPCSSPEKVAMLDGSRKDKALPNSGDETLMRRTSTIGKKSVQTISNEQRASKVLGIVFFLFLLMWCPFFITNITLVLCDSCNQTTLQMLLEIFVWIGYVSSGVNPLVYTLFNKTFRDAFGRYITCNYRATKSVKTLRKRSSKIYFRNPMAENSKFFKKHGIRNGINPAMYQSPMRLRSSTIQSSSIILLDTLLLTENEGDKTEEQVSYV

Structure (SMILES)	[Ca^2+]ER [1]	expression of PPARα and PGC1α [2]	mRNA expression of G6PAse and PEPCK [2]	mRNA expression of lipogenic genes (SCD1, DGAT2, FASn, SREBP1c) [2]	Increase in Vmax at 10 μM [3]	response against human adenosine A2A [4]	response against human NET transporter [5]	response against rabbit monoamine transporter [6]	response against human 5-HT2B [7]	total distance in hidden platform test (Morris water maze) [8]	CLobs ([9]; listed under oral pharmacokinetic properties) [mL/min/kg]	Cmax ([9]; rat, plasma, oral, 2 mg/kg P.O.) [nM]	AUC(0-t) ([9]; rat, plasma, oral, 2 mg/kg P.O., read-out: AUClast) [µM·h]	F [10] [%]	AUC [10] [ng·h/mL]	Cmax [10] [nM]	half-life [10] [min]	pharmacokinetic properties as measured by CMAX, AUC and F (%) ([10]; compared with other SERCA modulators, see Table 6)
Cc1ccc2cccc(NC(=O)c3ccc(OC(C)C)cc3)c2n1 [Compound A12, 4-Isopropoxy-N-(2-methylquinolin-8-yl)benzamide]	significantly restored	increased	significantly reduced	significantly reduced	A′ (A′ represents an increase greater than 50%)	significant responses	significant responses	significant responses	significant responses	a decrease in total distance	251	260	0.41	2.3	25.1	200	13.4	–
Cc1ccc2cccc(NC(=O)c3ccc(N(C)C)cc3)c2n1 [Compound C18, 4-N,N-Dimethylamino-N-(2-methylquinolin-8-yl)benzamide]	–	–	–	–	–	–	–	–	–	–	–	–	–	35	380	900	53.4	significantly improved pharmacokinetic properties
